Reference: patent US20060111309A1, “Chalcomycin derivatives” (Biofrontera Discovery GmbH, priority 2002, published 2006)
Converted amounts (≈) assume the structure as drawn.

Tests used:
Format in all cases: cell-based
Chlorella sorokiniana = assay: dilution method MIC
Escherichia coli [1] = assay: dilution method MIC
Bacillus subtillis [2] = assay: dilution method MIC
Escherichia coli [3] = assay: agar diffusion test; settings: 10 μg/9 mm Ø plate
Stapylococcus aureus [4] = assay: agar diffusion test; settings: 10 μg/9 mm Ø plate
Stapylococcus aureus [5] = assay: dilution method MIC
Scenedesmus subspicatus = assay: dilution method MIC
Mucor miehei = assay: agar diffusion test; settings: 10 μg/9 mm Ø plate
Bacillus subtillis [6] = assay: agar diffusion test; settings: 10 μg/9 mm Ø plate
Candida albicans = assay: agar diffusion test; settings: 10 μg/9 mm Ø plate

Compound | MIC, CS (Chlorella sorokiniana) | MIC, EC (Escherichia coli [1]) | MIC, BS (Bacillus subtillis [2]) | diameter of the inhibition zone, EC (Escherichia coli [3]) | diameter of the inhibition zone, SA (Stapylococcus aureus [4]) | MIC, SA (Stapylococcus aureus [5]) | MIC, SS (Scenedesmus subspicatus) | diameter of the inhibition zone, MM (Mucor miehei) | diameter of the inhibition zone, BS (Bacillus subtillis [6]) | diameter of the inhibition zone, CA (Candida albicans)
CO[C@@H]1[C@H](O)[C@@H](C)O[C@@H](OC[C@H]2[C@@H]3O[C@H]3/C=C/C(=O)[C@@](C)(O)C[C@H](C)[C@H](O[C@@H]3O[C@H](C)C[C@H](OC)[C@H]3O)[C@@H](C)/C=C/C(=O)O[C@@H]2C)[C@@H]1OC [1a, Chalcomycin] | 50 µg/mL (≈ 71.3 µM) | >50 µg/mL | 6.25 µg/mL (≈ 8.92 µM) | 32 mm | 30 mm | 0.39 µg/mL (≈ 0.556 µM) | 50 µg/mL (≈ 71.3 µM) | 0 mm | 25 mm | 0 mm
CC[C@H]1OC(=O)[C@H](C)[C@@H](O[C@H]2C[C@@](C)(OC)[C@@H](O)[C@H](C)O2)[C@H](C)[C@@H](O[C@@H]2O[C@H](C)C[C@H](N(C)C)[C@H]2O)[C@](C)(O)C[C@@H](C)C(=O)[C@H](C)[C@@H](O)[C@]1(C)O [E, erythromycin] |  |  |  | 30 mm | 24 mm |  |  |  | 22 mm | 
chalcomycin B [1b] | 50 µg/mL | >50 µg/mL | 6.25 µg/mL | 28 mm | 23 mm | 0.39 µg/mL | 50 µg/mL | 0 mm | 21 mm | 0 mm
